This note sets out measurements from patent publication US6403123B1, “Method for topical treatment of anthralin-responsive dermatological disorders” (priority 2000, dated 2002).

Common to all, as to format: in vivo, human
Series [1] deals with psoriasis. Kind of series: Earlier or concurrent treatment of the psoriasis subjects with other drugs (case histories). As to conditions: person.
In series [2] the test system is psoriasis. In words: Topical treatment of psoriasis patients by the method: anthralin formulation, then wax formulation, then talc powder. The settings on record: person.
Text: In accordance with the present invention, the anthralin formulation is first topically applied to the involved skin area, or skin lesions, such as psoriatic plaques or eczema, of a patient in need of such treatment. […] The anthralin formulation may be applied by any means which provides a relatively uniform layer of anthralin formulation on the involved area. Suitable means of application include spraying, roll-on, and application using a brush, saturated cotton gauze, pad, sponge-tipped applicator, and the like. As the anthralin formulation penetrates into the lesions or evaporates, any unabsorbed anthralin formulation on the lesion surface can be wiped off with a tissue, paper towel, cloth or the like. Thereafter, a wax formulation is applied to the lesion to cover the anthralin formulation-treated area. The wax formulation may be applied using any application method that allows for applying a relatively uniform layer of the wax formulation. Such application methods include, but are not limited to, spraying, roll-on, and application by brush, cotton gauze, pad, sponge-tipped applicator, and the like. As the vehicle(s) of the wax formulation evaporate, a thin film of wax will be formed to cover the lesion surface of the involved area. […] Finally, a powder, such as talc, may then be optionally applied over the wax film in order to eliminate any remaining anthralin thereby further ensuring that staining of clothing or other objects is avoided. […] The powder may be applied by dusting using a puff or pad, sprinkling, spreading and the like. The method was typically carried out as follows. A liquid anthralin formulation as formulated in Example 1(A) was topically applied to skin lesions once to twice daily by the patient using a saturated cotton pad. As the anthralin penetrated into the lesions and the solvents evaporated, a tissue or paper towel was used to wipe off excess materials from the surface of the lesions. The wax formulation as formulated in Example 2(B) was topically applied to the lesions. […]
Series [3] is described as follows: Staining of skin and clothing and skin irritation during the topical anthralin method. The text has this: As the anthralin formulation penetrates into the lesions or evaporates, any unabsorbed anthralin formulation on the lesion surface can be wiped off with a tissue, paper towel, cloth or the like. Thereafter, a wax formulation is applied to the lesion to cover the anthralin formulation-treated area. The wax formulation may be applied using any application method that allows for applying a relatively uniform layer of the wax formulation. Such application methods include, but are not limited to, spraying, roll-on, and application by brush, cotton gauze, pad, sponge-tipped applicator, and the like. As the vehicle(s) of the wax formulation evaporate, a thin film of wax will be formed to cover the lesion surface of the involved area. There are two advantages to the presence of the wax film: (a) the thin wax film will act as an occlusive backing to drive the penetration of anthralin deeper into the lesions; and (b) the wax film will prevent any trace amounts of anthralin from contacting clothing or other objects.
Finally, a powder, such as talc, may then be optionally applied over the wax film in order to eliminate any remaining anthralin thereby further ensuring that staining of clothing or other objects is avoided. […]

For the molecule `CN(Cc1cnc2nc(N)nc(N)c2n1)c1ccc(C(=O)N[C@@H](CCC(=O)O)C(=O)O)cc1` [methotrexate], in the series on psoriasis [1] (Example 5, generalized plaque psoriasis, intramuscular injections every one to four weeks), the improvement of lesions entry was “approximately 50%”.
Consider `O=C1c2c(O)cccc2Cc2cccc(O)c21` [anthralin, 1,8,9,-anthracenetriol], for which the “improvement of the psoriasis” value in the series with psoriasis [2] (Example 6, anthralin 0.2% increased to 1% by weight, once daily, maintained over one year) was “approximately 90%”. Further, the “skin free of psoriasis” value in the series with psoriasis [2] (Example 7, anthralin 0.3% increased to 0.6% by weight, once daily, after four months) is “approximately 90%”. Also, the “improvement of psoriatic lesions” value in the series on psoriasis [2] (Example 8, small plaque psoriasis, 3% anthralin formulation once daily, after four months) is on record as “approximately 75%”. For the same molecule, in series [3] (Example 10, 0.25% anthralin, wax formulation Example 2(B), fine talc, twice a day for four weeks), the staining of clothes entry is on record as “no staining of their clothes”. Moreover, in series [3] (typical case, about 0.1% to about 0.2% by weight anthralin, once or twice daily on chronic psoriatic plaques), the “skin irritation and staining to the skin and clothing” value was “without skin irritation and staining to the skin and clothing”.
`C=C1/C(=C\C=C2/CCC[C@]3(C)[C@@H]([C@H](C)/C=C/[C@@H](O)C4CC4)CC[C@@H]23)C[C@@H](O)C[C@@H]1O` [calcipotriene]: the “response of plaque psoriasis” value in the series with psoriasis [1] (Example 6, plaque psoriasis for four years, topical treatment) was “did not improve well”. The “response of generalized small plaque psoriasis” value in the series on psoriasis [1] (Example 7, psoriasis for seventeen years, topical treatment) was “did not respond”.
